In PubChem BioAssay (NCI):
“And” between values parts separate entries of the source, which are not always exact repeats. Identical values can stand only once.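 96-well plates; 48 h exposure; 5 concentrations. Endpoints by linear interpolation between flanking doses. Not reached: highest tested concentration assigned. GI50: concentration for 50% inhibition of growth. The concentration for full growth arrest is given as TGI.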

What was measured:
Assay in all cases: growth of human tumour cells (NCI), 48 h
[1] = test system: HOP-62 NSCLC
[2] = test system: HT29 colon
[3] = test system: OVCAR-4 ovarian
[4] = test system: BT-549 breast
[5] = test system: UO-31 renal
[6] = test system: HCC-2998 colon
[7] = test system: HCT-15 colon
[8] = test system: 786-0 renal
[9] = test system: HOP-92 NSCLC
[10] = test system: MOLT-4 leukemia

| SMILES | GI50 [1] | TGI [1] | GI50 [2] | TGI [2] | GI50 [3] | TGI [3] | GI50 [4] | TGI [4] | GI50 [5] | TGI [5] | GI50 [6] | TGI [6] | GI50 [7] | TGI [7] | GI50 [8] | TGI [8] | GI50 [9] | TGI [9] | GI50 [10] | TGI [10] |
| --- | --- | --- | --- | --- | --- | --- | --- | --- | --- | --- | --- | --- | --- | --- | --- | --- | --- | --- | --- | --- |
| S=C(N/N=C/c1cc(Cl)cc(Cl)c1)NC12CC3CC(CC(C3)C1)C2 | 2.43 µM | 5.93 µM | > 58.3 µM | > 100 µM | 2.12 µM | 6.07 µM | > 100 µM | > 100 µM | 4.86 µM | > 100 µM | > 100 µM | > 100 µM | > 56.6 µM | > 100 µM | 8.63 µM | > 100 µM | 2.5 µM | 12 µM | > 100 µM | > 100 µM |
| C#C[C@]1(O)CC[C@H]2[C@@H]3CC=C4c5nc(Nc6ccccn6)sc5CC[C@]4(C)[C@H]3CC[C@@]21C | 1.11 µM | 2.95 µM | 1.6 µM | 3.94 µM | 2.94 µM | 9.42 µM | 0.692 µM | 2.82 µM | 1.21 µM | 2.64 µM | 1.95 µM | 5.13 µM | 1.27 µM | 2.94 µM | 0.389 µM | 1.69 µM | 1.8 µM | 4.43 µM | 0.344 µM | 1.7 µM |
| CN1CCCN(CCNc2nccc(-c3c(-c4cccc(O)c4)nc4sccn34)n2)S1(=O)=O | 30.6 µM and 30.9 µM | 75 µM and > 100 µM | 2.32 µM and 2.33 µM | 42.2 µM and > 100 µM | 6.72 µM and 8.49 µM | 52.2 µM and > 100 µM | 9.2 µM and 12.3 µM | 58.8 µM and > 78.4 µM | 5.2 µM and 6.46 µM | 39 µM and > 87.2 µM | 13.4 µM and 19.4 µM | 34.5 µM and > 88.2 µM | 7.12 µM and 5.51 µM | 75 µM and 98.4 µM | 5.55 µM and 7.14 µM | 72.4 µM and > 100 µM | 12.1 µM and 16 µM | 51.6 µM and 77.5 µM | 14.5 µM and 10.2 µM | 52.1 µM and 41.2 µM |
| CNC(=O)Nc1ccc(-c2nc(N3CCOCC3)nc3c2cnn3C2CCOCC2)cc1 | 0.23 µM | 4.38 µM | 0.295 µM | > 100 µM | 0.191 µM |  | 0.132 µM | 2.08 µM | 0.0435 µM | 0.544 µM | 0.307 µM | > 100 µM | 0.26 µM | > 100 µM | 0.295 µM | 2.86 µM | 0.0371 µM | 0.526 µM | 0.355 µM | > 26.8 µM |
| CC1(C)CCC(C)(C)c2cc(C(=O)Nc3ccc(C(=O)O)cc3)ccc21 |  | 37.5 µM |  | > 68.2 µM |  | 67.1 µM |  | 73 µM |  | 30.7 µM |  | 37.2 µM |  | 63 µM |  | > 56.5 µM |  | > 100 µM |  | > 76.8 µM |
| COC1/C=C/OC2(C)Oc3c(C)c(O)c4c(c3C2=O)C(=O)C=C(NC(=O)/C(C)=C\C=C\C(C)C(OC=O)C(C)C(O)C(C)C(OC(C)=O)C1C)C4=O (stereo not drawn) |  | 34.8 µM |  | 23.4 µM |  | 19.1 µM |  | 24 µM |  | 29.6 µM |  | 35.4 µM |  | 22.7 µM |  | 20.8 µM |  | 28.8 µM |  | 10.8 µM |
| COc1cc(-c2oc3ccccc3c(=O)c2O)cc(OC)c1OC |  | 71.1 µM |  | > 100 µM |  | > 100 µM |  | > 100 µM |  | > 100 µM |  | > 100 µM |  | > 100 µM |  | 41.6 µM |  | 44 µM |  | > 100 µM |
| COc1ccc(Cl)cc1Nc1nc(C(F)(F)F)ccc1C(=O)NN | 5.78 µM | > 75.4 µM | 26.3 µM | > 100 µM | 3.21 µM | > 100 µM | 2.13 µM | > 100 µM | 3.97 µM | > 76.7 µM |  | 9.82 µM | 1.2 µM | > 100 µM | 2.42 µM | > 25.8 µM | 2.56 µM | 40.1 µM | 2.53 µM | > 24.3 µM |
| NS(=O)(=O)c1ccc(N2Cc3cc(Cl)ccc3OC3=C2C(=O)N(CC2CCCCC2)C3=O)cc1 | 1.73 µM | 3.39 µM | 0.392 µM | 1.1 µM | 0.897 µM | 2.46 µM | 0.546 µM | 1.97 µM | 1.1 µM | 2.32 µM | 1.84 µM | 3.51 µM | 0.344 µM | 1.45 µM | 0.207 µM | 0.482 µM | 1.31 µM | 2.67 µM | 0.195 µM | 0.531 µM |
| COc1ccc(-c2cc(-c3ccc(Cl)cc3)c(C#N)c(=O)n2CCCCC(=O)Nc2ccccc2N)cc1 | 12.7 µM | > 100 µM | 3.44 µM | > 100 µM | 10.5 µM | > 100 µM | 4.71 µM | 31.9 µM | 4.71 µM | > 100 µM | 6.2 µM | 79.9 µM | 3.03 µM | 13 µM | 7.46 µM | > 100 µM | 2.59 µM | 9.99 µM | 4.89 µM | > 100 µM |
| COc1ccc2nc(-c3ccccc3)cc(Nc3cccc(/C(C)=N\O)c3)c2c1 | 1.84 µM | 4.27 µM | 28.2 µM | > 100 µM | 5.65 µM | > 100 µM | 32.8 µM | > 100 µM | 9.66 µM | > 100 µM | 46.2 µM | > 100 µM | 29.8 µM | > 100 µM | 2.09 µM | 5.15 µM | 1.93 µM | 5.66 µM | 6.18 µM | > 100 µM |
| CSc1ccc(C2=Nn3c(nnc3-c3ccc(F)c(Cl)c3)SC2)cc1 | 5.84 µM | 19.5 µM | 5.73 µM | 29.7 µM | 23.6 µM | 85.1 µM | 12.8 µM | 50.5 µM | 16.5 µM | 43.7 µM | 24 µM | > 100 µM | 10.1 µM | > 100 µM | 13.5 µM | 32 µM | 4 µM | 14.8 µM | 7.2 µM | > 100 µM |
